The values below come from patent publication US20150087682A1, “Method for Treating Scleroderma” (The Regents of the University of Colorado, A body corporate, priority 2012, published 2015).

The target of the test is TLR4 (Homo sapiens, UniProt O00206). Briefly: Inhibition of the TLR4 signaling pathway / TLR4 binding. As to the method: These compounds were evaluated for inhibition of the TLR4 signaling pathway in vitro and in vivo.
Chain of TLR4 (O00206 24-839, species assumed): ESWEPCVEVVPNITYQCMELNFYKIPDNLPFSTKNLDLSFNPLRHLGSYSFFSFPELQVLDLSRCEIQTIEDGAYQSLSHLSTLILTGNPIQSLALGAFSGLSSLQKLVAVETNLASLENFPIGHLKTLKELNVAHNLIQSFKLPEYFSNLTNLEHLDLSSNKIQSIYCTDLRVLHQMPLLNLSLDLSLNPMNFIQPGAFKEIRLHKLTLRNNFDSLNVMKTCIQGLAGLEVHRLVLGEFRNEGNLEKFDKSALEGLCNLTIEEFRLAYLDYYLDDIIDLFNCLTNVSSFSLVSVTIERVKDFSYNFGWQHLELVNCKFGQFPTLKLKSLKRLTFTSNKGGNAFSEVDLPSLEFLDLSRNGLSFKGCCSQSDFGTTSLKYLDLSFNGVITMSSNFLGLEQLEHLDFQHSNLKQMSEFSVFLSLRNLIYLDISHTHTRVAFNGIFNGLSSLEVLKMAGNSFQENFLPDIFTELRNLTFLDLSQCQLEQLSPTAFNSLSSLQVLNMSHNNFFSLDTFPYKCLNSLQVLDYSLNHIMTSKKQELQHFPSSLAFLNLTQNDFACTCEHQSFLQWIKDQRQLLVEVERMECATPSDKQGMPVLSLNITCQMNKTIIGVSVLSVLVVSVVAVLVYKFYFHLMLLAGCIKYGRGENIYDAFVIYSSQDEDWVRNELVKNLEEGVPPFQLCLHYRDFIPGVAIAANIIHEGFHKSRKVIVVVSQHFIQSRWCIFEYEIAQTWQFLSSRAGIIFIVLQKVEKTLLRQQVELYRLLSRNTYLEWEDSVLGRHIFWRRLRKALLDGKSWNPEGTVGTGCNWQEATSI

For the compound `CCOc1ccc(OCC(O)CN(C)Cc2c(C)nn(Cc3ccccc3Cl)c2C)cc1` (stereo not shown) [Compound A-1, 1-(((1-(2-chlorobenzyl)-3,5-dimethyl-1H-pyrazol-4-yl)methyl)(methyl)amino)-3-(4-ethoxyphenoxy)propan-2-ol], the TLR4 binding result is on record as “substantially inhibited TLR4 binding”.
